Experimental data: patent US20230135552A1, “Compounds Useful In Inhibiting Ketohexokinase And Methods Of Making And Using The Same” (Inorbit Therapeutics AB, priority 2020, published 2023)

Tests used:
[1] = biological target: T1, Human Ketohexokinase (KHK-A) (Homo sapiens, UniProt P50053); assay: Transcreener Kinase ADP2 FP assay, inhibition of human KHK-A; format: biochemical; settings: recombinant human KHK-A 17.5 nM, 0.3 mM ATP, 7 mM fructose, 30 min pre-incubation, 60 min at 30° C.
T1 construct: Recombinant Human Ketohexokinase, Met1Val298, with C terminal 6His tag; 6His (C); purchased R&D Systems 8177-HK
T1 sequence (P50053 1-298 isoform P50053-2): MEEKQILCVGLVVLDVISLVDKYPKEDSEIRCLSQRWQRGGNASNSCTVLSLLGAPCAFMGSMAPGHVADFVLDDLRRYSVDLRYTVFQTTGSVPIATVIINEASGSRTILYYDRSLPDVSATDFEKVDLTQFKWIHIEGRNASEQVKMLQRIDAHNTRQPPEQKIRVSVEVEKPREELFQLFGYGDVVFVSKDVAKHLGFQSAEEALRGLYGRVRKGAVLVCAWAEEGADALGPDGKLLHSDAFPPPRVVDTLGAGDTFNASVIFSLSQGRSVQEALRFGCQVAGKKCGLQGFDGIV
Protocol: The following materials and methods were used, • Enzyme description and source: Recombinant Human Ketohexokinase, Met1Val298, with C terminal 6His tag (R&D Systems, 8177-HK). • Reagents: 200 μM ATP and 100 mM D-(−)-Fructose (Sigma F0127) as substrates. • Enzyme reaction buffer: 25 mM HEPES, 300 mM KCl, 10 mM MgCl2, 10 mM CaCl2, pH 7.0. • Control compound: KHK Inhibitor (Millipore-Sigma 420640) See Maryanoff, B. E., et al. 2011. ACS Med. Chem. Lett. 2, 538. • Assay: Transcreener Kinase ADP2 FP assay as described: https://www.bellbrooklabs.com/products/transcreener-hts-assays/kinase-assays/ • Assay parameters: 12-point dose response (n=2), 3-fold serial dilution, starting at 100 μM
KHK-A was added to the tested compounds (from 10 mM stock solution in 25 mM Tris pH 7.4), to a total volume 5 μl, and pre-incubated for 30 minutes at rt to ensure E*I complex formation. The reaction was then initiated by addition of an equal volume (5 μl) containing ATP and Fructose to give a resulting mix of 17.5 nM KHK-A, 0.3 mM ATP, 7 mM Fructose, 25 mM Tris (pH 7.4), 10 mM MgCl2, 10 mM CaCl2 and 50 mM KCl. Following 60 min at 30° C., reactions were quenched with 10 μl of stop/detect mix (40 mM HEPES (pH 7.5), 80 mM EDTA, 0,04% Brij-35, 8 nM ADP tracer and optimal concentration of ADP2 antibody), The plates were read on a PHERAstar PLUS after 1-hour room temperature equilibration. […]

KHK = biological target: T2, KHK (Rattus norvegicus, UniProt Q02974); assay: Oral Fructose Tolerance Test (OFTT) in male Sprague Dawley rats; format: in vivo; settings: 100 mg/kg oral; fructose bolus 2 g/kg 1 hour after compound; blood at 0.5, 1, 2 and 3 hours post challenge; FIG. 1
T2 construct: from tissue; host or cells: whole animal, male Sprague Dawley rats (in vivo)
T2 sequence (Q02974 1-298): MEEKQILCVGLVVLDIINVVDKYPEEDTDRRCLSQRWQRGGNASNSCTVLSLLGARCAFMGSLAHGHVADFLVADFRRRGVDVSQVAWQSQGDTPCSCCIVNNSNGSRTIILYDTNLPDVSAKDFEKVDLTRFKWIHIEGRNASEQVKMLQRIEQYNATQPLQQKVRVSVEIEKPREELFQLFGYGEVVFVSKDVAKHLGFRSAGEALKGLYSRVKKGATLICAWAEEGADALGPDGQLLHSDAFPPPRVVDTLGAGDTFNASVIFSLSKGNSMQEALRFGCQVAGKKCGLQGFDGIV
Protocol: FIG. 1: Graph showing the change in fructose levels from baseline in the control and Example 2 and 6 treated animals in the OFTT study.
The animals were fasted overnight, basal blood samples collected and a 100 mg/kg dose was orally administered of compounds example 2 or example 6. A fructose bolus (2 g/kg) was then given 1 hour after test compound administration and blood samples collected at 0.5, 1, 2 and 3 hours post fructose challenge. All the blood samples were centrifuged immediately and the separated plasma samples were stored at appropriate temperature for the fructose estimation. Plasma fructose concentration was measured by commercially available EnzyChrome fructose assay kit.

Structure (SMILES)	IC50 [1]	change in fructose levels from baseline (plasma fructose) versus the control group (KHK)
Cc1c(N2C[C@@H]3[C@H](C2)[C@H]3CS(=O)O)nc(N2CC[C@@H]2C)nc1C(F)(F)F [Example 6, sodium((1R,5S,6S)-3-(5-methyl-2-((S)-2-methylazetidin-1-yl)-6-(trifluoromethyl)pyrimidin-4-yl)-3-azabicyclo[3.1.0]hexan-6-yl)methanesulfinate]	78 nM	increase of fructose plasma levels
C[C@H]1CCN1c1nc(N2C[C@@H]3[C@H](C2)[C@H]3CS(=O)O)cc(C(F)(F)F)n1 [Example 2, sodium((1R,5S,6S)-3-(2-((S)-2-methylazetidin-1-yl)-6-(trifluoromethyl)pyrimidin-4-yl)-3-azabicyclo[3.1.0]hexan-6-yl)methanesulfinate]	740 nM	increase of fructose plasma levels
